Source: patent US20210395327A1, “Growth Hormone-Releasing Hormone Antagonists and Uses Thereof” (United States Government As Represented By The Department …, priority 2019, published 2021)
Non-standard residues stand in square brackets, D forms with d. Residues, ends and D or L forms follow the SMILES beside them. *: point of attachment. Phenylacetyl(2,3,4,5,6-F5) = O=C(Cc1c(F)c(F)c(F)c(F)c1F)*; Phe(F5) = N[C@@H](Cc1c(F)c(F)c(F)c(F)c1F)C(=O)O; Phe(4-Cl) = N[C@@H](Cc1ccc(Cl)cc1)C(=O)O; hArg = N=C(N)NCCCC[C@H](N)C(=O)O; 12Ado = NCCCCCCCCCCCC(=O)O; Nle = CCCC[C@H](N)C(=O)O; Abu = CC[C@H](N)C(=O)O

Key:
[1] = system: PANC-1 pancreatic cancer cells; experiment: In vitro cell viability, PANC-1; type: cell-based, human; conditions: antagonist 5 μM for 72 h, cell proliferation assay; MIA602 = 1
Procedure: (§1) The inhibitory effects of the various synthesized GHRH antagonists were tested in cell proliferation assays in various human cancer cell lines including stomach cancer (KATOIII, N87), colon cancer (HT-29), urothelial cancer (J82, RT4), pancreatic cancer (PANC-1, CFPAC-1), prostatic cancer (PC3), breast cancer (MX-1, HCC1806), ovarian cancer (SK-OV-3, OVCAR-3) and lung cancer (HCC827, H460).
(§2) Cell culture. Human cancer cell lines including pancreatic (PANC-1 and CFPAC-1), lung (HCC827 and H460), stomach (NCI-N87 and KATOIII), urothelial (J82, RT4), prostatic (PC3), breast (MX-1 and HCC 1806), colorectal (HT-29), and ovarian (SK-OV-3 and OVCAR-3) were obtained from the American Type Culture Collection (ATCC) and cultured at 37° C. in a humidified 95% air/5% CO2 atmosphere in the medium recommended by ATCC.
(§3) In vitro cell viability. Cell viability was analyzed as follows: cancer cells including pancreatic (PANC-1 and CFPAC-1), lung (HCC827 and H460), stomach (NCI-N87 and KATOIII), urothelial (J82, RT4), prostatic (PC3) and breast (MX-1 and HCC 1806), colorectal (HT-29) and ovarian (SK-OV-3 and OVCAR-3) were grown on 96 well plates to ˜60% confluence, the cells were starved for 24 h in culture medium containing 0.5% FBS. Cells were then treated with GHRH antagonists MIA602 AVR compounds at concentrations of 1, 2.5 or 5 μM, or vehicle (0.1% DMSO) in quintuplicates for 72 hours. The medium was replaced every 48 hours. Cell viability was measured using CellTiter 96 aqueous one solution kit (Promega). Inhibitory effects of tested AVR compounds in comparison to that of MIA602 are presented as inhibitory potency.
(§4) Inhibitory effects of selected AVR compounds in comparison to that of MIA602 are presented as inhibitory potency (e.g., percentage of inhibition). […] The cell lines tested including lung cancer HCC827 (FIG. 2A), pancreatic cancer CFPAC-1 (FIG. 2B), stomach cancer N87 (FIG. 2C), colon cancer HT-29 (FIG. 2D), breast cancers MX-1 and HCC1806 (FIGS. 2 E, F). Based on the results of cell proliferation assay after cancer cells were treated with antagonist at concentration of 5 μM for 72H, the relative inhibitory potency of AVR antagonists in comparison to MIA-602 is summarized in Table 3 A and B. Over 60 AVR compounds were tested in 12 cancer cell lines.

[2] = system: J82 urothelial cancer cells; experiment: In vitro cell viability, J82; type: cell-based, human; conditions: antagonist 5 μM for 72 h, cell proliferation assay; MIA602 = 1
Procedure: as §1, §2, §3, §4

[3] = system: breast cancer HCC-1806 xenograft; experiment: Xenograft tumor growth in nude mice, HCC-1806; type: in vivo; conditions: Table 4K, Breast Ca HCC-1806, 5 weeks, 5 μg/day s.c.
Procedure: (§5) The peptides' activity was compared with GHRH antagonist MIA-602. All statistical analyzses were performed from comparing GHRA antagonists to non-treated tumor (control).
(§6) Peptides and chemicals. GHRH antagonists MIA-602 and AVR-GHRH antagonists (see Table 2 above) were synthesized by solid phase methods and purified by HPLC. The peptides were dissolved in DMSO and further diluted in 10% 1,2-propanediol. The final concentration of peptides was 50 µg/ml in 10% 1,2-propanediol containing 0.1% of DMSO.
as §2, with “(NCI-N87), prostate” for “(NCI-N87 and KATOIII), urothelial (J82, RT4), prostatic”, “brest” for “breast”, “HCC-1806),” for “HCC 1806),”
(§7) Xenograft models of human cancers in nude mice. Female athymic (NCr nu/nu) nude mice, 5- to 6-weeks-old, obtained from the Envigo labs (Tampa, Fla.), were housed in laminar airflow cabinets under pathogen-free conditions with a 12-h light/12-h dark schedule, and were fed autoclaved standard chow and water. To generate mice with xenografted tumors, tumor xenografts were initiated by subcutaneous (s.c.) injection of 107 human cancer cells into female nude mice. After about 4 weeks the resulting tumors were dissected and collected after removing necrosis tissues. The tumors were then cut into particles with size of 3 mm3 and transplanted s.c. by trocar needle into experimental animals. When tumors grew to the size of 50-60 mm3 (by volume), mice were randomized into groups and treated daily for 4-8 weeks by subcutaneous administration of 5 μg of GHRH antagonists MIA-602 or AVR-compounds (2-10 μg as indicated), or vehicle solutions (0.1% DMSO in 10% 1,2-propanediol) respectively. Tumor sizes were measured weekly.
(§8) Statistical analysis. One-way ANOVA followed by Bonferroni comparison were performed. Data are expressed as Mean±SEM. To determine statistical significance between animal groups, two-tailed Student's t-test was conducted. Differences were considered significant when p<0.05.
(§9) Results. […] FIG. 1A-N represents in vivo inhibition of tumor growth during the treatment with GHRH antagonist MIA-602 and selected AVR antagonists in nude mice xenografted with various human tumors including pancreatic cancer PANC-1 (FIG. 1A) and CFPAC-1 (FIG. 1I); lung cancer HCC827 (FIGS. 1B, C) and H460 (FIG. 1H); stomach cancer N87 (FIGS. 1D-F); colon cancer HT-29 (FIG. 1G); breast cancer MX-1 and HCC-1806 (FIGS. 1J, K); ovarian cancer SK-OV-3 and OVACAR-3 (FIGS. 1 L, M) and prostate cancer PC3 (FIG. 1N). See also Table 5.

[4] = system: breast cancer MX-1 xenograft; experiment: Xenograft tumor growth in nude mice, MX-1; type: in vivo; conditions: Table 4J, Breast Ca MX-1, 4 weeks, 5 μg/day s.c.
Procedure: as §5, §6
as §2, with “(NCI-N87), prostate” for “(NCI-N87 and KATOIII), urothelial (J82, RT4), prostatic”, “brest” for “breast”, “HCC-1806),” for “HCC 1806),”
as §7, §8, §9

[5] = system: pancreatic cancer PANC-1 xenograft; experiment: Xenograft tumor growth in nude mice, PANC-1; type: in vivo; conditions: Table 4A, Pancreatic Ca PANC-1, 7 weeks, 5 μg/day s.c.
Procedure: as §5, §6
as §2, with “(NCI-N87), prostate” for “(NCI-N87 and KATOIII), urothelial (J82, RT4), prostatic”, “brest” for “breast”, “HCC-1806),” for “HCC 1806),”
as §7, §8, §9

In the case of CCCC[C@H](NC(=O)[C@@H](NC(=O)[C@H](CC(=O)O)NC(=O)[C@H](CCC(N)=O)NC(=O)[C@H](CC(C)C)NC(=O)[C@H](CC(C)C)NC(=O)[C@H](CCCCN)NC(=O)[C@H](CCCNC(=N)N)NC(=O)[C@H](C)NC(=O)[C@H](CO)NC(=O)[C@H](CC(C)C)NC(=O)[C@H](CCC(N)=O)NC(=O)[C@H](CC)NC(=O)[C@H](CC(C)C)NC(=O)[C@@H](NC(=O)[C@H](CCCCN)NC(=O)[C@H](CCCNC(=N)N)NC(=O)[C@H](Cc1ccc(OC)cc1)NC(=O)[C@H](CCCCNC(=N)N)NC(=O)[C@H](C)NC(=O)[C@@H](NC(=O)[C@H](Cc1c(F)c(F)c(F)c(F)c1F)NC(=O)[C@@H](NC(=O)[C@H](C)NC(=O)[C@H](CC(=O)O)NC(=O)[C@@H](CCCNC(=N)N)NC(=O)[C@H](Cc1ccc(O)cc1)NC(=O)CCCCCCCCCCCNC(=O)Cc1c(F)c(F)c(F)c(F)c1F)[C@@H](C)CC)[C@@H](C)O)C(C)C)[C@@H](C)CC)C(=O)N[C@H](CCCNC(=N)N)C(=O)N[C@@H](CCCCNC(=N)N)C(=O)NC [AVR-235] ({Phenylacetyl(2,3,4,5,6-F5)-12Ado}-Y[dR]DAI[Phe(F5)]TA[hArg]Y(Me)RKVL[Abu]QLSARKLLQDI[Nle][dR][hArg]-NHMe), the “relative inhibitory potency in comparison to MIA-602, Pancreatic Panc-1” value [1] is reported as 1.139 and the “relative inhibitory potency in comparison to MIA-602, Urothelial J82” value [2] is reported as 1.518.
In the case of CCCC[C@H](NC(=O)[C@@H](NC(=O)[C@H](CC(=O)O)NC(=O)[C@H](CCC(N)=O)NC(=O)[C@H](CC(C)C)NC(=O)[C@H](CC(C)C)NC(=O)[C@H](CCCCN)NC(=O)[C@H](CCCNC(=N)N)NC(=O)[C@H](C)NC(=O)[C@H](CO)NC(=O)[C@H](CC(C)C)NC(=O)[C@H](CCC(N)=O)NC(=O)[C@H](CC)NC(=O)[C@H](CC(C)C)NC(=O)[C@@H](NC(=O)[C@H](CCCCN)NC(=O)[C@H](CCCNC(=N)N)NC(=O)[C@H](Cc1c(F)c(F)c(F)c(F)c1F)NC(=O)[C@H](CCCCNC(=N)N)NC(=O)[C@H](C)NC(=O)[C@@H](NC(=O)[C@H](Cc1ccc(Cl)cc1)NC(=O)[C@@H](NC(=O)[C@H](C)NC(=O)[C@H](CC(=O)O)NC(=O)[C@@H](CCCNC(=N)N)NC(=O)[C@H](Cc1ccc(O)cc1)NC(=O)CCCCCCCCCCCNC(=O)Cc1c(F)c(F)c(F)c(F)c1F)[C@@H](C)CC)[C@@H](C)O)C(C)C)[C@@H](C)CC)C(=O)N[C@H](CCCNC(=N)N)C(=O)N[C@@H](CCCCNC(=N)N)C(=O)NCCCCCCCCCCCC(=O)NC [AVR-354] ({Phenylacetyl(2,3,4,5,6-F5)-12Ado}-Y[dR]DAI[Phe(4-Cl)]TA[hArg][Phe(F5)]RKVL[Abu]QLSARKLLQDI[Nle][dR][hArg][12Ado]-NHMe), the “Tumor Growth %” value [3] is reported as 680.2%, the “% Inhibition” value ([3]; vs control) is reported as 43.1% and the “Tumor Growth %” value [4] is reported as 488.3%. For the same compound, the “% Inhibition” value ([4]; vs control) was 56.2%.
With CCCC[C@H](NC(=O)[C@@H](NC(=O)[C@H](CC(=O)O)NC(=O)[C@H](CCC(N)=O)NC(=O)[C@H](CC(C)C)NC(=O)[C@H](CC(C)C)NC(=O)[C@H](CCCCN)NC(=O)[C@H](CCCNC(=N)N)NC(=O)[C@H](C)NC(=O)[C@H](CO)NC(=O)[C@H](CC(C)C)NC(=O)[C@H](CCC(N)=O)NC(=O)[C@H](CC)NC(=O)[C@H](CC(C)C)NC(=O)[C@@H](NC(=O)[C@H](CCCCN)NC(=O)[C@H](CCCNC(=N)N)NC(=O)[C@H](Cc1ccc(OC)cc1)NC(=O)[C@H](CCCCNC(=N)N)NC(=O)[C@H](CC(N)=O)NC(=O)[C@@H](NC(=O)[C@H](Cc1ccc(Cl)cc1)NC(=O)[C@@H](NC(=O)[C@H](C)NC(=O)[C@H](CC(=O)O)NC(=O)[C@@H](CCCNC(=N)N)NC(=O)[C@H](Cc1ccc(O)cc1)NC(=O)CCCCCCCCCCCNC(=O)Cc1c(F)c(F)c(F)c(F)c1F)[C@@H](C)CC)[C@@H](C)O)C(C)C)[C@@H](C)CC)C(=O)N[C@H](CCCNC(=N)N)C(=O)N[C@@H](CCCCNC(=N)N)C(=O)NCCCCCCCCCCCC(N)=O [AVR-333, 5FPhAC-Ada-Tyr-DArg-Asp-Ala-Ile-Cpa-Thr-Asn-Har-Tyr(Me)-Arg-Lys-Val-Leu-Abu-Gln-Leu-Ser-Ala-Arg-Lys-Leu-Leu-Gln-Asp-Ile-Nle-DArg-Har-Ada-NH2] ({Phenylacetyl(2,3,4,5,6-F5)-12Ado}-Y[dR]DAI[Phe(4-Cl)]TN[hArg]Y(Me)RKVL[Abu]QLSARKLLQDI[Nle][dR][hArg][12Ado]-NH2) the “Tumor Growth %” value [5] was 1384.4% and the “% Inhibition” value ([5]; vs control) was 48.2%.
